molecular target: Factor IXa (Homo sapiens, UniProt P00740); experiment: Determination of inhibitory activity against Factor IXa (cleavage of fluorescent peptide substrate); type: biochemical; conditions: cleavage of fluorescent peptide CH3SO2-D-CHG-Gly-Arg-AFC, release of AFC; read-out: FIXa IC50
Text: • (R)—N-(3-aminobenzo[d]isoxazol-6-yl)-2-hydroxy-2-((R)-4-(1-(6-methoxypyridazin-4-yl)-1H-pyrazol-3-yl)-6,6-dimethyl-3-oxomorpholin-2-yl)acetamide. Determination of Inhibitory Activity Against Factor IXa
Formation of a clot to stem bleeding at a site of blood vessel injury involves the coordinated activity of a group of plasma proteins that initiate and propagate fibrin formation and subsequently protect fibrin from premature degradation. Factor IX is a key component of the plasma system that forms a fibrin clot at a site of vascular injury. The activity of Factor IXa is measured by monitoring the cleavage of the fluorescent peptide, CH3SO2-D-CHG-Gly-Arg-AFC.AcOH (“CHG” is cyclohexyl-glycine and “AFC” is trifluoro aminomethyl coumarin). Factor IXa cleaves the amide bond between Arg and AFC, thereby releasing the AFC fluorophore. The free AFC can be detected with a fluorescence detector at an excitation wavelength of 405 nm and emission wavelength of 510 nm.

Factor IXa, sequence (P00740 227-461 limits assumed): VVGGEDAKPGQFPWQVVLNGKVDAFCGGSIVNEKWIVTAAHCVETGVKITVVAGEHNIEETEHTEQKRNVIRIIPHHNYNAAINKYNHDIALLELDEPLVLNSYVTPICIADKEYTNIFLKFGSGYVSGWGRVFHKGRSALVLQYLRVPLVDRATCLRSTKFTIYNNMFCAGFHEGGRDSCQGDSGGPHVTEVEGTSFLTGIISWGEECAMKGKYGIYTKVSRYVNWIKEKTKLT
Factor IXa, sequence (P00740 47-191 partner limits assumed): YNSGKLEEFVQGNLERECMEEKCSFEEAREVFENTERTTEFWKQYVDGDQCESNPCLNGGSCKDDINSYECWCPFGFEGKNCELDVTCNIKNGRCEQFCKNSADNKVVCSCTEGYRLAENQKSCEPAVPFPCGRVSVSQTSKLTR

Compound	IC50
COc1cc(-n2cc(F)c(N3CCO[C@H]([C@@](C)(O)C(=O)Nc4ccc5c(N)noc5c4)C3=O)n2)cnn1 [Example 49, (R)—N-(3-aminobenzo[d]isoxazol-6-yl)-2-((R)-4-(4-fluoro-1-(6-methoxypyridazin-4-yl)-1H-pyrazol-3-yl)-3-oxomorpholin-2-yl)-2-hydroxypropanamide]	6.48 nM
C[C@](O)(C(=O)Nc1ccc2c(N)noc2c1)[C@H]1OCCN(c2nn(-c3cnnc(C(F)(F)F)c3)cc2F)C1=O [Example 50, (R)—N-(3-aminobenzo[d]isoxazol-6-yl)-2-((R)-4-(4-fluoro-1-(6-(trifluoromethyl)pyridazin-4-yl)-1H-pyrazol-3-yl)-3-oxomorpholin-2-yl)-2-Hydroxypropanamide]	1.89 nM
Cc1nccc(-n2ccc(N3CCO[C@H]([C@@](C)(O)C(=O)Nc4ccc5c(N)noc5c4)C3=O)n2)n1 [Example 51, (R)—N-(3-aminobenzo[d]isoxazol-6-yl)-2-hydroxy-2-((R)-4-(1-(2-methylpyrimidin-4-yl)-1H-pyrazol-3-yl)-3-oxomorpholin-2-yl)propanamide]	170 nM
CN(C)c1nccc(-n2ccc(N3CCO[C@H]([C@@](C)(O)C(=O)Nc4ccc5c(N)noc5c4)C3=O)n2)n1 [Example 52, (R)—N-(3-aminobenzo[d]isoxazol-6-yl)-2-((R)-4-(1-(2-(dimethylamino)pyrimidin-4-yl)-1H-pyrazol-3-yl)-3-oxomorpholin-2-yl)-2-Hydroxypropanamide]	102 nM
C[C@](O)(C(=O)Nc1ccc2c(N)noc2c1)[C@H]1OCCN(c2ccn(-c3ccnc(C(F)(F)F)n3)n2)C1=O [Example 53, (R)—N-(3-aminobenzo[d]isoxazol-6-yl)-2-hydroxy-2-((R)-3-oxo-4-(1-(2-(trifluoromethyl)pyrimidin-4-yl)-1H-pyrazol-3-yl)morpholin-2-yl)propanamide]	76.7 nM
C[C@](O)(C(=O)Nc1ccc2c(N)noc2c1)[C@H]1OCCN(c2ccn(-c3ccnc(C#N)n3)n2)C1=O [Example 54, (R)—N-(3-aminobenzo[d]isoxazol-6-yl)-2-((R)-4-(1-(2-cyanopyrimidin-4-yl)-1H-pyrazol-3-yl)-3-oxomorpholin-2-yl)-2-hydroxypropanamide]	145 nM
COc1nccc(-n2ccc(N3CCO[C@H]([C@@](C)(O)C(=O)Nc4ccc5c(N)noc5c4)C3=O)n2)n1 [Example 55, (R)—N-(3-aminobenzo[d]isoxazol-6-yl)-2-hydroxy-2-((R)-4-(1-(2-methoxypyrimidin-4-yl)-1H-pyrazol-3-yl)-3-oxomorpholin-2-yl)propanamide]	24.8 nM
COc1cc(-n2ccc(N3CCO[C@H]([C@@](C)(O)C(=O)Nc4ccc5c(N)noc5c4)C3=O)n2)ncn1 [Example 56, (R)—N-(3-aminobenzo[d]isoxazol-6-yl)-2-hydroxy-2-((R)-4-(1-(6-methoxypyrimidin-4-yl)-1H-pyrazol-3-yl)-3-oxomorpholin-2-yl)propanamide]	84.5 nM
C[C@](O)(C(=O)Nc1ccc2c(N)noc2c1)[C@H]1OCCN(c2nn(-c3ccnc(C(F)(F)F)n3)cc2F)C1=O [Example 57, (R)—N-(3-aminobenzo[d]isoxazol-6-yl)-2-((R)-4-(4-fluoro-1-(2-(trifluoromethyl)pyrimidin-4-yl)-1H-pyrazol-3-yl)-3-oxomorpholin-2-yl)-2-hydroxypropanamide]	63.7 nM
COc1nccc(-n2cc(F)c(N3CCO[C@H]([C@@](C)(O)C(=O)Nc4ccc5c(N)noc5c4)C3=O)n2)n1 [Example 58, (R)—N-(3-aminobenzo[d]isoxazol-6-yl)-2-((R)-4-(4-fluoro-1-(2-methoxypyrimidin-4-yl)-1H-pyrazol-3-yl)-3-oxomorpholin-2-yl)-2-hydroxypropanamide]	32 nM
Cc1cc(N2CCO[C@H]([C@@](C)(O)C(=O)Nc3ccc4c(N)noc4c3)C2=O)nn1-c1ccnc(C(F)(F)F)n1 [Example 59, (R)—N-(3-aminobenzo[d]isoxazol-6-yl)-2-hydroxy-2-((R)-4-(5-methyl-1-(2-(trifluoromethyl)pyrimidin-4-yl)-1H-pyrazol-3-yl)-3-oxomorpholin-2-yl)propanamide]	72.8 nM
C[C@](O)(C(=O)Nc1ccc2c(N)noc2c1)[C@H]1OCCN(c2ccc(-c3ccnc(C#N)c3)o2)C1=O [Example 61, (R)—N-(3-aminobenzo[d]isoxazol-6-yl)-2-((R)-4-(5-(2-cyanopyridin-4-yl)furan-2-yl)-3-oxomorpholin-2-yl)-2-hydroxypropanamide]	93 nM
C[C@](O)(C(=O)Nc1ccc2c(N)noc2c1)[C@H]1OCCN(c2ccc(-c3ccnc(C(F)(F)F)c3)o2)C1=O [Example 62, (R)—N-(3-aminobenzo[d]isoxazol-6-yl)-2-hydroxy-2-((R)-3-oxo-4-(5-(2-(trifluoromethyl)pyridin-4-yl)furan-2-yl)morpholin-2-yl)propanamide]	43.5 nM
COc1cc(-c2ccc(N3CCO[C@H]([C@@](C)(O)C(=O)Nc4ccc5c(N)noc5c4)C3=O)o2)ccn1 [Example 63, (R)—N-(3-aminobenzo[d]isoxazol-6-yl)-2-hydroxy-2-((R)-4-(5-(2-methoxypyridin-4-yl)furan-2-yl)-3-oxomorpholin-2-yl)propanamide]	131 nM
COc1nccc(-c2ccc(N3CCO[C@H]([C@@](C)(O)C(=O)Nc4ccc5c(N)noc5c4)C3=O)o2)n1 [Example 64, (R)—N-(3-aminobenzo[d]isoxazol-6-yl)-2-hydroxy-2-((R)-4-(5-(2-methoxypyrimidin-4-yl)furan-2-yl)-3-oxomorpholin-2-yl)propanamide]	124 nM
CC(C)(O)c1cccc(N2CCO[C@H]([C@@](C)(O)C(=O)Nc3ccc4c(N)noc4c3)C2=O)n1 [Example 65, (R)—N-(3-aminobenzo[d]isoxazol-6-yl)-2-hydroxy-2-((R)-4-(6-(2-hydroxypropan-2-yl)pyridin-2-yl)-3-oxomorpholin-2-yl)propanamide]	468 nM
C[C@](O)(C(=O)Nc1ccc2c(N)noc2c1)[C@H]1OCCN(c2cccc(-c3ccnnc3)n2)C1=O [Example 67, (R)—N-(3-aminobenzo[d]isoxazol-6-yl)-2-hydroxy-2-((R)-3-oxo-4-(6-(pyridazin-4-yl)pyridin-2-yl)morpholin-2-yl)propanamide]	66.9 nM
C[C@](O)(C(=O)Nc1ccc2c(N)noc2c1)[C@H]1OCCN(c2ccc3cc(C(F)(F)F)ccc3n2)C1=O [Example 68, (R)—N-(3-aminobenzo[d]isoxazol-6-yl)-2-hydroxy-2-((R)-3-oxo-4-(6-(trifluoromethyl)quinolin-2-yl)morpholin-2-yl)propanamide]	574 nM
C[C@](O)(C(=O)Nc1ccc2c(N)noc2c1)[C@H]1OCCN(c2ccc3ccncc3n2)C1=O [Example 69, (R)-2-((R)-4-(1,7-naphthyridin-2-yl)-3-oxomorpholin-2-yl)-N-(3-aminobenzo[d]isoxazol-6-yl)-2-hydroxypropanamide]	384 nM
Cc1nn(C)c2nc(N3CCO[C@H]([C@@](C)(O)C(=O)Nc4ccc5c(N)noc5c4)C3=O)ccc12 [Example 70, (R)—N-(3-aminobenzo[d]isoxazol-6-yl)-2-((R)-4-(1,3-dimethyl-1H-pyrazolo[3,4-b]pyridin-6-yl)-3-oxomorpholin-2-yl)-2-hydroxypropanamide]	195 nM

Reference: US9708308B2, “Factor IXa inhibitors” (Merck Sharp & Dohme Corp., priority 2012, dated 2017)
